Columns and labels:
ALK = biological target: T1, ALK (Homo sapiens, UniProt Q9UM73); assay: ALK Kinase Assay (ELISA/TRF, PLC-γ substrate); type: biochemical; details: ALK kinase inhibition, 1 μM ATP; read-out: ALK Potency
T1 construct: host or cells: baculovirus expression system
In short: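 Read-out is time-resolved fluorescence from a Eu-N1-labeled PT66 antibody that binds phosphorylated PLC-γ, the substrate coated at 10 μg/mL in TBS. ALK at 30 ng/ml starts the reaction, which runs 15 minutes at 37° C.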

JAK2 = biological target: T2, JAK2 (Homo sapiens, UniProt O60674); assay: Recombinant Human JAK2 Kinase Assay (TRF); type: biochemical; details: JAK2 kinase inhibition, 0.2 μM ATP; read-out: JAK2 Potency
T2 construct: host or cells: baculovirus expression system
T2 sequence (O60674 whole entry): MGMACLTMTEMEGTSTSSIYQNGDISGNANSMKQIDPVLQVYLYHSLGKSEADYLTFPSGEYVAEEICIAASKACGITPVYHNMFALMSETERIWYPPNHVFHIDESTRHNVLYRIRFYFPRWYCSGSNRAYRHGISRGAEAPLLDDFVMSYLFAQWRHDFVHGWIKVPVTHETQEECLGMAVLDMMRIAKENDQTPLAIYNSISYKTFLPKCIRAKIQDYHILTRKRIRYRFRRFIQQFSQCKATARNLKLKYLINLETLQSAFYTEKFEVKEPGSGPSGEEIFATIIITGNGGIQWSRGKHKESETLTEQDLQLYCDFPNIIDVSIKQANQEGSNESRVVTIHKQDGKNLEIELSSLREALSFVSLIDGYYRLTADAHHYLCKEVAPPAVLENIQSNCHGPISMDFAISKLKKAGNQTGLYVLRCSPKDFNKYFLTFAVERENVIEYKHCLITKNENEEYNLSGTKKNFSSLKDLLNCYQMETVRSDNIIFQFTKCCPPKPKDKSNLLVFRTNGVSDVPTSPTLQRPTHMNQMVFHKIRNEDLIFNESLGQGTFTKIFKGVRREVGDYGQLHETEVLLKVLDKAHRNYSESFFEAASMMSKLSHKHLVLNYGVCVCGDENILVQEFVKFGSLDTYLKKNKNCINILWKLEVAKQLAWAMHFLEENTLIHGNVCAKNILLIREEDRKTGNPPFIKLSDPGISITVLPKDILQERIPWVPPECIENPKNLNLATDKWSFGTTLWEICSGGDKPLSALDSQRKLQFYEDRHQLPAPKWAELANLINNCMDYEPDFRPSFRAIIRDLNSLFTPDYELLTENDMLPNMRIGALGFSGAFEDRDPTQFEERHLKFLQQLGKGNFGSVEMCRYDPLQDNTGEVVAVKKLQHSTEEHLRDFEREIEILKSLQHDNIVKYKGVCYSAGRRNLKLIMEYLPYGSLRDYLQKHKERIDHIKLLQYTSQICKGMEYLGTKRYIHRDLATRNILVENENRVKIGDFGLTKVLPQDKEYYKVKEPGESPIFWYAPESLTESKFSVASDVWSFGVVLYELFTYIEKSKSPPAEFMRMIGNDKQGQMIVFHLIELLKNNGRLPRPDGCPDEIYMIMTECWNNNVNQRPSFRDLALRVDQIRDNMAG
In short: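 Baculovirus-expressed JAK2 (15 ng/ml) phosphorylated a biotinylated 15-mer peptide captured on Neutravidin-coated plates, in 20 mM HEPES pH 7.2 with 0.2 μM ATP, 1 mM MnCl2, 0.1% BSA and 2.5% DMSO. Reaction ran 20 min at room temperature; phosphopeptide was detected by time-resolved fluorescence with Eu-N1-labelled PY100 antibody.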

T1 sequence (Q9UM73 19-1620): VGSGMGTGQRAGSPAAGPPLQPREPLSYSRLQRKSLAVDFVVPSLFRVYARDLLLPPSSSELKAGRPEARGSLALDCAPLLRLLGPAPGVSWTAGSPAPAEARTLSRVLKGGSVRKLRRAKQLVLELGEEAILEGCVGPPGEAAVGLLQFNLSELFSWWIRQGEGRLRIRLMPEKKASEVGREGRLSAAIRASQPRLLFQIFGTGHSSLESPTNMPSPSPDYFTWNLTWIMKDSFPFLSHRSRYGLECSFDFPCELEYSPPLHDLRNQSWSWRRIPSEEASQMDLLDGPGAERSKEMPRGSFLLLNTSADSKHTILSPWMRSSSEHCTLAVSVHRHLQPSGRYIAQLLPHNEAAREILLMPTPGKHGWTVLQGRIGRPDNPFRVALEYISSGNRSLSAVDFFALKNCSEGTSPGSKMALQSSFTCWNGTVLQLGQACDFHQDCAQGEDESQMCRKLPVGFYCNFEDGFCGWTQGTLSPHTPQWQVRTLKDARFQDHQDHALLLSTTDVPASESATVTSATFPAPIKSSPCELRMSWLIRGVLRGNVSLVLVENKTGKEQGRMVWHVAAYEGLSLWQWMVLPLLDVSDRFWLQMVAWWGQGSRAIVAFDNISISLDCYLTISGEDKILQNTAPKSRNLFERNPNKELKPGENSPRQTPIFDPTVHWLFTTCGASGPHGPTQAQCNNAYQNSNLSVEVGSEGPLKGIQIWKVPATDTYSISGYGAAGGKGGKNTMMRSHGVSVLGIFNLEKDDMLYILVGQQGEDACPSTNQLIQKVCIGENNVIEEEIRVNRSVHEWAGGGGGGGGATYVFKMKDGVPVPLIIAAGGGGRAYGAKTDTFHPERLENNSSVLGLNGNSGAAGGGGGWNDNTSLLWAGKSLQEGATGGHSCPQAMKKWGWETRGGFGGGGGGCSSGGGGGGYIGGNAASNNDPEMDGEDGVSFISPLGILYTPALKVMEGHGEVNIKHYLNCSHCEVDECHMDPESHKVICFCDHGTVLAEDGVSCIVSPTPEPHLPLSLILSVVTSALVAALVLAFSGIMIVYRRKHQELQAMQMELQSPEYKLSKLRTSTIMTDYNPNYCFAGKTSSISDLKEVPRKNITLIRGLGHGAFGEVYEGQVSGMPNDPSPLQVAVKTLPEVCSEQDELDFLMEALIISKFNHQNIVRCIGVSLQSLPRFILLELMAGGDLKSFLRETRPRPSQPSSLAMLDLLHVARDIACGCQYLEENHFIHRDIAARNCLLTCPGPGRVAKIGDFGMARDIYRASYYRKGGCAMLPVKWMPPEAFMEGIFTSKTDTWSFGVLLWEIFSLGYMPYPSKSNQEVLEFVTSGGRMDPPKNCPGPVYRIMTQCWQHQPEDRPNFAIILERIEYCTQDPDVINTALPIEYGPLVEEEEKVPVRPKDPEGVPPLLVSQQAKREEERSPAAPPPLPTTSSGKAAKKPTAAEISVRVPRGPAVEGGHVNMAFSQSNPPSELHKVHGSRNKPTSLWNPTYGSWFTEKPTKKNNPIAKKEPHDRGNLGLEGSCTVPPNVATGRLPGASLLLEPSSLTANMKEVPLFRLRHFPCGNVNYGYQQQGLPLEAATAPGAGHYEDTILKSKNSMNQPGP

Row | SMILES | IC50 (ALK) | IC50 (JAK2)
1 | CN1CCC(c2ccc(Nc3ncc4ccc(-c5ccn(C)n5)n4n3)cc2)CC1 [Example 954, [4-(1-Methyl-piperidin-4-yl)-phenyl]-[7-(1-methyl-1H-pyrazol-3-yl)-pyrrolo[2,1-f][1,2,4]triazin-2-yl]-amine] | 100 to 1000 nM | < 100 nM
2 | Cn1ccc(-c2ccc3cnc(Nc4ccc(C5CCN(CC(N)=O)CC5)cc4)nn23)n1 [Example 955] | 100 to 1000 nM | < 100 nM
3 | CS(=O)(=O)Nc1cccc(-c2ccc3cnc(Nc4ccc(C5CCN(CC(N)=O)CC5)cc4)nn23)c1 [Example 956, 2-(4-{4-[7-(3-Methanesulfonylamino-phenyl)-pyrrolo[2,1-f][1,2,4]triazin-2-ylamino]-phenyl}-piperidin-1-yl)-acetamide] | 100 to 1000 nM | < 100 nM
4 | C[C@H](O)CN1CCC(c2ccc(Nc3ncc4ccc(-c5cccc(NS(C)(=O)=O)c5)n4n3)cc2)CC1 [Example 957, N-[3-(2-{4-[1-((S)-2-Hydroxy-propyl)-piperidin-4-yl]-phenylamino}-pyrrolo[2,1-f][1,2,4]triazin-7-yl)-phenyl]-methanesulfonamide] | < 100 nM | < 100 nM
5 | CS(=O)(=O)Nc1cccc(-c2ccc3cnc(Nc4ccc(C5CCN(CCO)CC5)cc4)nn23)c1 [Example 958, N-[3-(2-{4-[1-(2-Hydroxy-ethyl)-piperidin-4-yl]-phenylamino}-pyrrolo[2,1-f][1,2,4]triazin-7-yl)-phenyl]-methanesulfonamide] | < 100 nM | < 100 nM
6 | CN(c1cccc(-c2ccc3cnc(Nc4ccc(C5CCN(CC(N)=O)CC5)cc4)nn23)c1)S(C)(=O)=O [Example 959, 2-[4-(4-{7-[3-(Methanesulfonyl-methyl-amino)-phenyl]-pyrrolo[2,1-f][1,2,4]triazin-2-ylamino}-phenyl)-piperidin-1-yl]-acetamide] | 100 to 1000 nM | < 100 nM
7 | C[C@H](O)CN1CCC(c2ccc(Nc3ncc4ccc(-c5cccc(N(C)S(C)(=O)=O)c5)n4n3)cc2)CC1 [Example 960, N-[3-(2-{4-[1-((S)-2-Hydroxy-propyl)-piperidin-4-yl]-phenylamino}-pyrrolo[2,1-f][1,2,4]triazin-7-yl)-phenyl]-N-methyl-methanesulfonamide] | 100 to 1000 nM | < 100 nM
8 | CN(c1cccc(-c2ccc3cnc(Nc4ccc(C5CCN(CCO)CC5)cc4)nn23)c1)S(C)(=O)=O [Example 961, N-[3-(2-{4-[1-(2-Hydroxy-ethyl)-piperidin-4-yl]-phenylamino}-pyrrolo[2,1-f][1,2,4]triazin-7-yl)-phenyl]-N-methyl-methanesulfonamide] | 100 to 1000 nM | < 100 nM
9 | CC(=O)Nc1cc(Nc2ncc3ccc(-c4cnn(C)c4)n3n2)ccc1Cl [Example 962, N-{2-Chloro-5-[7-(1-methyl-1H-pyrazol-4-yl)pyrrolo[2,1f][1,2,4]triazin-2-ylamino]-phenyl}-acetamide] | 1000 to 10000 nM | < 100 nM
10 | CC(C)C(=O)Nc1cccc(Nc2ncc3ccc(-c4cnn(C)c4)n3n2)c1 [Example 963, N-{3-[7-(1-Methyl-1H-pyrazol-4-yl)-pyrrolo[2,1-f][1,2,4]triazin-2-ylamino]-phenyl}-isobutyramide] | 1000 to 10000 nM | < 100 nM
11 | Cn1cc(-c2ccc3cnc(Nc4cccc(-n5cccn5)c4)nn23)cn1 [Example 964, [7-(1-Methyl-1H-pyrazol-4-yl)pyrrolo[2,1f][1,2,4]triazin-2-yl]-(3-pyrazol-1-yl-phenyl)-amine] | 1000 to 10000 nM | < 100 nM
12 | CNC(=O)c1cccc(Nc2ncc3ccc(-c4cnn(C)c4)n3n2)c1 [Example 965, N-Methyl-3-[7-(1-methyl-1H-pyrazol-4-yl)-pyrrolo[2,1-f][1,2,4]triazin-2-ylamino]-benzamide] | 1000 to 10000 nM | < 100 nM
13 | CC(=O)N1CCc2ccc(Nc3ncc4ccc(-c5cnn(C)c5)n4n3)cc21 [Example 966, 1-{6-[7-(1-Methyl-1H-pyrazol-4-yl)-pyrrolo[2,1-f][1,2,4]triazin-2-ylamino]-2,3-dihydro-indol-1-yl}-ethanone] | 1000 to 10000 nM | < 100 nM
14 | Cn1cc(-c2ccc3cnc(Nc4cccc(N5CCCC5=O)c4)nn23)cn1 [Example 967, 1-{3-[7-(1-Methyl-1H-pyrazol-4-yl)-\pyrrolo[2,1-f][1,2,4]triazin-2-ylamino]-phenyl}-pyrrolidin-2-one] | 1000 to 10000 nM | < 100 nM
15 | CC(=O)N1CC(C)(C)c2ccc(Nc3ncc4ccc(-c5cnn(C)c5)n4n3)cc21 [Example 968, 1-{3,3-Dimethyl-6-[7-(1-methyl-1H-pyrazol-4-yl)-pyrrolo[2,1-f][1,2,4]triazin-2-ylamino]-2,3-dihydro-indol-1-yl}-ethanone] | 100 to 1000 nM | < 100 nM
16 | CN1CCN(c2cccc(Nc3ncc4ccc(-c5cnn(C)c5)n4n3)c2)CC1 [Example 969, [3-(4-Methyl-piperazin-1-yl)-phenyl]-[7-(1-methyl-1H-pyrazol-4-yl)-pyrrolo[2,1-f][1,2,4]triazin-2-yl]-amine] | 1000 to 10000 nM | < 100 nM

Row | SMILES | IC50 (ALK) | IC50 (JAK2)
17 | CN1CCN(c2cccc(Nc3ncc4ccc(-c5cn[nH]c5)n4n3)c2)CC1 [Example 970, [3-(4-Methyl-piperazin-1-yl)-phenyl]-[7-(1H-pyrazol-4yl)-pyrrolo[2,1-f][1,2,4]triazin-2-yl]-amine] | 100 to 1000 nM | < 100 nM
18 | CC(C)CCn1cc(-c2ccc3cnc(Nc4cccc(N5CCN(C)CC5)c4)nn23)cn1 [Example 971, {7-[1-(3-Methyl-butyl)-1H-pyrazol-4-yl]-pyrrolo[2,1-f][1,2,4]triazin-2-yl}-[3-(4-methyl-piperazin-1-yl)-phenyl]-amine] | 1000 to 10000 nM | < 100 nM
19 | COCCn1cc(-c2ccc3cnc(Nc4cccc(N5CCN(C)CC5)c4)nn23)cn1 [Example 972, {7-[1-(2-Methoxy-ethyl)-1H-pyrazol-4-yl]-pyrrolo[2,1-f][1,2,4]triazin-2-yl}-[3-(4-methyl-piperazin-1-yl)-phenyl]-amine] | 1000 to 10000 nM | < 100 nM
20 | COc1ccc(-c2ccc3cnc(Nc4ccc(Cl)c(CN5CCOCC5)c4)nn23)cn1 [Example 973, (4-Chloro-3-morpholin-4-ylmethyl-phenyl)-[7-(6-methoxy-pyridin-3-yl)-pyrrolo[2,1-f][1,2,4]triazin-2-yl]-amine] | > 10000 nM | < 100 nM
21 | COc1ccc(-c2ccc3cnc(Nc4cccc(C#N)c4)nn23)cn1 [Example 974, 3-[7-(6-Methoxy-pyridin-3-yl)pyrrolo[2,1f][1,2,4]triazin-2-ylamino]-benzonitrile] | 1000 to 10000 nM | < 100 nM
22 | COc1ccc(-c2ccc3cnc(Nc4cccc(NCC(N)=O)c4)nn23)cn1 [Example 975, 2-{3-[7-(6-Methoxy-pyridin-3-yl)-pyrrolo[2,1-f][1,2,4]triazin-2-ylamino]-phenylamino}-acetamide] | 1000 to 10000 nM | < 100 nM
23 | CN1CCN(c2cccc(Nc3ncc4ccc(-c5cnn(CCCO)c5)n4n3)c2)CC1 [Example 976, 3-(4-{2-[3-(4-Methyl-piperazin-1-yl)-phenylamino]-pyrrolo[2,1-f][1,2,4]triazin-7-yl}-pyrazol-1-yl)-propan-1-ol] | 100 to 1000 nM | < 100 nM
24 | CN1CCN(c2cccc(Nc3ncc4ccc(-c5cnn(CCC#N)c5)n4n3)c2)CC1 [Example 977, 3-(4-{2-[3-(4-Methyl-piperazin-1-yl)-phenylamino]-pyrrolo[2,1-f][1,2,4]triazin-7-yl}-pyrazol-1-yl)-propionitrile] | 100 to 1000 nM | < 100 nM
25 | CN1CCN(c2cccc(Nc3ncc4ccc(-c5cnn(CC(N)=O)c5)n4n3)c2)CC1 [Example 978, 2-(4-{2-[3-(4-Methyl-piperazin-1-yl)-phenylamino]-pyrrolo[2,1-f][1,2,4]triazin-7-yl}-pyrazol-1-yl)-acetamide] | 100 to 1000 nM | < 100 nM
26 | COc1ccc(-c2ccc3cnc(Nc4ccc5c(c4)NC(=O)CC5)nn23)cn1 [Example 979, 7-[7-(6-Methoxy-pyridin-3-yl)-pyrrolo[2,1-f][1,2,4]triazin-2-ylamino]-3,4-dihydro-1H-quinolin-2-one] | 1000 to 10000 nM | < 100 nM
27 | COc1ccc(-c2ccc3cnc(Nc4ccc5c(c4)N(C)CCC5)nn23)cn1 [Example 980, [7-(6-Methoxy-pyridin-3-yl)-pyrrolo[2,1-f][1,2,4]triazin-2-yl]-(1-methyl-1,2,3,4-tetrahydro-quinolin-7-yl)-amine] | > 10000 nM | < 100 nM
28 | COc1ccccc1-c1ccc2cnc(Nc3ccc4c(c3)NC(=O)CC4)nn12 [Example 981, 7-[7-(2-Methoxy-phenyl)-pyrrolo[2,1-f][1,2,4]triazin-2-ylamino]-3,4-dihydro-1H-quinolin-2-one] | 100 to 1000 nM | < 100 nM
29 | COc1ccccc1-c1ccc2cnc(Nc3ccc4c(c3)N(C)CCC4)nn12 [Example 982, [7-(2-Methoxy-phenyl)-pyrrolo[2,1-f][1,2,4]triazin-2-yl]-(1-methyl-1,2,3,4-tetrahydro-quinolin-7-yl)-amine] | 1000 to 10000 nM | < 100 nM
30 | COc1ccc(-c2ccc3cnc(Nc4cc5c(cc4F)CCC(=O)N5)nn23)cn1 [Example 983, 6-Fluoro-7-[7-(6-methoxy-pyridin-3-yl)-pyrrolo[2,1-f][1,2,4]triazin-2-ylamino]-3,4-dihydro-1H-quinolin-2-one] | > 10000 nM | < 100 nM
31 | COc1ccc(-c2ccc3cnc(Nc4ccc5c(c4)CN(CC(N)=O)CC5)nn23)cn1 [Example 986, 2-{7-[7-(6-Methoxy-pyridin-3-yl)-pyrrolo[2,1-f][1,2,4]triazin-2-ylamino]-3,4-dihydro-1H-isoquinolin-2-yl}-acetamide] | 1000 to 10000 nM | < 100 nM

Reference: US8471005B2 (Cephalon, Inc., priority 2008, dated 2013)
